Results reported in ChEMBL document CHEMBL3826978, “Design, synthesis and biological evaluation of novel chiral oxazino-indoles as potential and selective neuroprotective agents against Aβ25-35-induced neuronal damage” (Bioorg Med Chem Lett, 2016).
Active and inactive are the calls of the source. The calls are words filed in the database; no cut-off is given here.

Experiments:
SH-SY5Y [1] = test: Neuroprotective activity against amyloid beta(25 to 35)-induced neurotoxicity in human SH-SY5Y cells assessed as cell viability at 10 uM (reference value: 62.1 +/- 2.2%); format: functional; details: for viability at 10 µM: read-out: Activity
SH-SY5Y [2] = test: Neuroprotective activity against H2O2-induced neurotoxicity in human SH-SY5Y cells; format: functional, cell-based
SH-SY5Y [3] = test: Neuroprotective activity against oxygen glucose deprivation-induced neurotoxicity in human SH-SY5Y cells; format: functional, cell-based
SH-SY5Y [4] = test: Cytotoxicity against human SH-SY5Y cells assessed as cell viability by MTT assay; format: cell-based
SH-SY5Y [5] = test: Cytotoxicity against human SH-SY5Y cells assessed as cell proliferation by SRB assay; format: cell-based
SH-SY5Y [6] = test: Neuroprotective activity against amyloid beta(25 to 35)-induced neurotoxicity in human SH-SY5Y cells assessed as cell viability at 10 uM by SRB assay; format: functional, cell-based

Compound | viability at 10 µM (SH-SY5Y [1]) [%] | Activity (SH-SY5Y [2]) | Activity (SH-SY5Y [3]) | Activity (SH-SY5Y [4]) | Activity (SH-SY5Y [5]) | Activity (SH-SY5Y [6]) | Activity (SH-SY5Y [1])
Cc1c2n(c3ccccc13)C[C@H](C)O[C@@H]2c1ccc(CC(C)C)cc1 | 108 | inactive | inactive | Non-toxic | Non-toxic | Active | –
Cc1c2n(c3ccccc13)C[C@H](C)O[C@@H]2c1coc2ccccc2c1=O | – | inactive | inactive | – | – | – | inactive
Cc1c2n(c3ccccc13)C[C@H](C)O[C@H]2c1cccs1 | – | inactive | inactive | – | – | – | inactive
Cc1c2n(c3ccccc13)C[C@H](C)O[C@H]2c1ccccc1 | – | inactive | inactive | – | – | – | inactive
Cc1ccccc1[C@@H]1O[C@@H](C)Cn2c1c(C)c1ccccc12 | – | inactive | inactive | – | – | – | inactive
O=C(O[C@@H]1Cc2c(O)cc(O)cc2O[C@@H]1c1cc(O)c(O)c(O)c1)c1cc(O)c(O)c(O)c1 [EPIGALOCATECHIN GALLATE] | 98.6 | – | – | – | – | – | –
Cc1ccc([C@@H]2O[C@@H](C)Cn3c2c(C)c2ccccc23)cc1 | – | inactive | inactive | – | – | – | inactive
Cc1cc(C)cc([C@H]2O[C@@H](C)Cn3c2c(C)c2ccccc23)c1 | – | inactive | inactive | – | – | – | inactive
Cc1c2n(c3ccccc13)C[C@H](C)O[C@@H]2c1ccc(Cl)cc1 | 74.4 | inactive | inactive | – | – | – | –
Cc1c2n(c3ccccc13)C[C@H](C)O[C@@H]2c1ccc(C(C)(C)C)cc1 | 84.5 | inactive | inactive | – | – | – | –
Cc1cc(C)cc([C@@H]2O[C@@H](C)Cn3c2c(C)c2ccccc23)c1 | 87.1 | inactive | inactive | – | – | – | –
Cc1c2n(c3ccccc13)C[C@@H](C)O[C@H]2c1ccccc1 | – | inactive | inactive | – | – | – | inactive
COc1cccc([C@H]2O[C@@H](C)Cn3c2c(C)c2ccccc23)c1 | – | inactive | inactive | – | – | – | inactive
Cc1c2n(c3ccccc13)C[C@@H](C)O[C@H]2c1ccc(F)cc1 | 90.6 | inactive | inactive | Non-toxic | Non-toxic | Active | –
Cc1c2n(c3ccccc13)C[C@@H](C)O[C@@H]2c1ccc(F)cc1 | – | inactive | inactive | – | – | – | inactive
Cc1c2n(c3ccccc13)C[C@H](C)O[C@H]2c1ccc(Cl)cc1 | – | inactive | inactive | – | – | – | inactive
Cc1c2n(c3ccccc13)C[C@@H](C)O[C@@H]2c1ccccc1 | – | inactive | inactive | – | – | – | inactive
CCc1ccc([C@H]2O[C@@H](C)Cn3c2c(C)c2ccccc23)cc1 | 93 | inactive | inactive | Non-toxic | Non-toxic | Active | –

Compound | viability at 10 µM (SH-SY5Y [1]) [%] | Activity (SH-SY5Y [2]) | Activity (SH-SY5Y [3]) | Activity (SH-SY5Y [4]) | Activity (SH-SY5Y [5]) | Activity (SH-SY5Y [6]) | Activity (SH-SY5Y [1])
Cc1c2n(c3ccccc13)C[C@H](C)O[C@@H]2c1cccs1 | – | inactive | inactive | – | – | – | inactive
Cc1ccccc1[C@H]1O[C@@H](C)Cn2c1c(C)c1ccccc12 | – | inactive | inactive | – | – | – | inactive
Cc1c2n(c3ccccc13)C[C@H](C)O[C@H]2c1ccc(C(C)(C)C)cc1 | 92.1 | inactive | inactive | Non-toxic | Non-toxic | Active | –
COc1cccc([C@@H]2O[C@@H](C)Cn3c2c(C)c2ccccc23)c1 | – | inactive | inactive | – | – | – | inactive
COc1ccccc1[C@@H]1O[C@@H](C)Cn2c1c(C)c1ccccc12 | 77.7 | inactive | inactive | – | – | – | –
Cc1c2n(c3ccccc13)C[C@H](C)O[C@H]2c1ccc(CC(C)C)cc1 | 96.2 | inactive | inactive | Non-toxic | Non-toxic | Active | –
CCc1ccc([C@@H]2O[C@@H](C)Cn3c2c(C)c2ccccc23)cc1 | – | inactive | inactive | – | – | – | inactive
Cc1ccc([C@H]2O[C@@H](C)Cn3c2c(C)c2ccccc23)cc1 | – | inactive | inactive | – | – | – | inactive
Cc1c2n(c3ccccc13)C[C@H](C)O[C@@H]2c1ccc(C(F)(F)F)cc1 | – | inactive | inactive | – | – | – | inactive
COc1cc([C@@H]2O[C@@H](C)Cn3c2c(C)c2ccccc23)cc(OC)c1OC | – | inactive | inactive | – | – | – | inactive
Cc1c2n(c3ccccc13)C[C@H](C)O[C@@H]2c1ccccc1 | – | inactive | inactive | – | – | – | inactive
Cc1cccc([C@@H]2O[C@@H](C)Cn3c2c(C)c2ccccc23)c1 | – | inactive | inactive | – | – | – | inactive
COc1cc([C@H]2O[C@@H](C)Cn3c2c(C)c2ccccc23)cc(OC)c1OC | – | inactive | inactive | – | – | – | inactive
Cc1cccc([C@H]2O[C@@H](C)Cn3c2c(C)c2ccccc23)c1 | – | inactive | inactive | – | – | – | inactive
COc1ccccc1[C@H]1O[C@@H](C)Cn2c1c(C)c1ccccc12 | – | inactive | inactive | – | – | – | inactive
Cc1c2n(c3ccccc13)C[C@H](C)O[C@H]2c1ccc(C(F)(F)F)cc1 | – | inactive | inactive | – | – | – | inactive
Cc1c2n(c3ccccc13)C[C@H](C)O[C@H]2c1ccc(F)cc1 | – | inactive | inactive | – | – | – | inactive
Cc1c2n(c3ccccc13)C[C@H](C)O[C@@H]2c1ccc(F)cc1 | – | inactive | inactive | – | – | – | inactive
